From ChEMBL document CHEMBL6153084, “The development of α, β-unsaturated lactam-based andrographolide derivatives as anti-gastric cancer agents with the ability of inhibiting the ERK/c-Fos/Jun pathway” (Eur J Med Chem, 2025)
pIC50: −log10 of the molar value. Active and inactive are the calls of the source. No cut-off for these calls is given here.

How the values were obtained:
MGC-803 [1] = experiment: Antiproliferative activity against human MGC-803 cells assessed as inhibition of cell growth incubated for 48 hrs by MTT assay; assay type: functional, cell-based; settings: MGC-803, 48 h
MGC-803 [2] = experiment: Antitumor activity against human MGC-803 cells xenografted in BALB/c mouse assessed as inhibition of tumor growth at 25 mg/kg, IG administered for 14 days; assay type: functional; settings: MGC-803, po, 336 h, time 14 day, read-out: TGI
MGC-803 [3] = experiment: Induction of apoptosis in human MGC-803 cells assessed as early apoptotic cells at 1 uM incubated for 48 hrs by Annexin V-FITC/PI staining based flow cytometry analysis (reference value: 0.30%); assay type: functional
MGC-803 [4] = experiment: Induction of apoptosis in human MGC-803 cells assessed as early apoptotic cells at 4 uM incubated for 48 hrs by Annexin V-FITC/PI staining based flow cytometry analysis (reference value: 0.30%); assay type: functional
MGC-803 [5] = experiment: Induction of apoptosis in human MGC-803 cells assessed as late apoptotic cells at 4 uM incubated for 48 hrs by Annexin V-FITC/PI staining based flow cytometry analysis (reference value: 0.98%); assay type: functional
MGC-803 [6] = experiment: Lipid-lowering activity in human MGC-803 cells assessed as reduction in lipid size by Oil Red O staining based analysis; assay type: functional, cell-based; settings: dose 1-4 µM
MGC-803 [7] = experiment: Downregulation of alpha-SMA expression in human MGC-803 cells at 1 to 4 uM incubated for 48 hrs by Western blot analysis; assay type: functional, cell-based; settings: dose 1-4 µM
MGC-803 [8] = experiment: Induction of ROS accumulation in human MGC-803 cells assessed as increase in fluorescence intensity at 1 to 4 uM incubated for 48 min by DCFH-DA and PI staining based microscopic analysis; assay type: functional, cell-based; settings: dose 1-4 µM
MGC-803 [9] = experiment: Induction of cell cycle arrest in human MGC-803 cells assessed as accumulation of cells at G2/M phase at 0.5 uM incubated for 48 hrs by PI staining based flow cytometry analysis; assay type: functional
MGC-803 [10] = experiment: Antiproliferative activity against human MGC-803 cells assessed as inhibition of cell growth incubated for 24 to 48 hrs by MTT assay; assay type: functional, cell-based
MGC-803 [11] = experiment: Lipid-lowering activity in human MGC-803 cells assessed as reduction in lipid droplet accumulation by Oil Red O staining based analysis; assay type: functional, cell-based; settings: dose 1-4 µM
HGC-27 = experiment: Antiproliferative activity against human HGC-27 cells assessed as inhibition of cell growth incubated for 48 hrs by MTT assay; assay type: functional, cell-based; settings: HGC-27, 48 h
MGC-803 [12] = experiment: Downregulation of ACSS2 mRNA level in human MGC-803 cells at 4 uM incubated for 24 hrs by RT-qPCR analysis; assay type: functional, cell-based
MGC-803 [13] = experiment: Antitumor activity against human MGC-803 cells xenografted in BALB/c mouse assessed as inhibition of tumor growth at 50 mg/kg, IG administered for 14 days; assay type: functional; settings: MGC-803, po, 336 h, time 14 day, read-out: TGI
MGC-803 [14] = experiment: Induction of cell cycle arrest in human MGC-803 cells assessed as reduction in CDC25C level incubated for 24 hrs by Western blot analysis; assay type: functional, cell-based; settings: dose 1-4 µM
PC-3 = experiment: Antiproliferative activity against human PC-3 cells assessed as inhibition of cell growth incubated for 24 to 72 hrs by MTT assay; assay type: functional, cell-based; settings: time 24-72 hrs
MGC-803 [15] = experiment: Induction of cell cycle arrest in human MGC-803 cells assessed as accumulation of cells at G2/M phase at 1 uM incubated for 48 hrs by PI staining based flow cytometry analysis; assay type: functional
MGC-803 [16] = experiment: Induction of apoptosis in human MGC-803 cells assessed as viable cells at 2 uM incubated for 48 hrs by Annexin V-FITC/PI staining based flow cytometry analysis (reference value: 93.9%); assay type: functional; settings: read-out: Activity
ECa-109 cell line = experiment: Antiproliferative activity against human Eca-109 cells assessed as inhibition of cell growth incubated for 24 to 72 hrs by MTT assay; assay type: functional, cell-based; settings: time 24-72 hrs
MGC-803 [17] = experiment: Antiproliferative activity against human MGC-803 cells assessed as inhibition of cell growth incubated for 72 hrs by MTT assay; assay type: functional, cell-based; settings: MGC-803, 72 h
MGC-803 [18] = experiment: Upregulation of E-cadherin expression in human MGC-803 cells at 1 to 4 uM incubated for 48 hrs by Western blot analysis; assay type: functional, cell-based; settings: dose 1-4 µM
[19] = Potency index, ratio of 5-fluorouracil IC50 to test compound IC50 for antiproliferative activity against human MGC-803 cells assessed as inhibition of cell growth incubated for 24 to 72 hrs by MTT assay; assay type: functional; settings: time 24-72 hrs
MGC-803 [20] = experiment: Induction of apoptosis in human MGC-803 cells assessed as upregulation of cleaved PARP expression at 1 to 4 uM incubated for 24 hrs by Western blot analysis; assay type: functional, cell-based; settings: dose 1-4 µM
MGC-803 [21] = experiment: Antiproliferative activity against human MGC-803 cells assessed as inhibition of cell growth incubated for 24 to 72 hrs by MTT assay; assay type: functional, cell-based
MGC-803 [22] = experiment: Induction of cell cycle arrest in human MGC-803 cells assessed as accumulation of cells at G2/M phase incubated for 48 hrs by PI staining based flow cytometry analysis; assay type: functional; settings: dose 0.25-1 µM
MGC-803 [23] = experiment: Induction of apoptosis in human MGC-803 cells assessed as necrotic cells at 4 uM incubated for 48 hrs by Annexin V-FITC/PI staining based flow cytometry analysis (reference value: 0.83%); assay type: functional
A549 = experiment: Antiproliferative activity against human A549 cells assessed as inhibition of cell growth incubated for 24 to 72 hrs by MTT assay; assay type: functional, cell-based; settings: time 24-72 hrs
BGC-823 = experiment: Antiproliferative activity against human BGC-823 cells assessed as inhibition of cell growth incubated for 48 hrs by MTT assay; assay type: functional, cell-based; settings: BGC-823, 48 h
MGC-803 [24] = experiment: Downregulation of c-FOS mRNA level in human MGC-803 at 4 uM incubated for 24 hrs by RT-qPCR analysis; assay type: functional, cell-based
MGC-803 [25] = experiment: Inhibition of ERK phosphorylation in human MGC-803 cells at 4 uM measured after 24 hrs by Western blot analysis; assay type: cell-based
MGC-803 [26] = experiment: Induction of apoptosis in human MGC-803 cells assessed as necrotic cells at 2 uM incubated for 48 hrs by Annexin V-FITC/PI staining based flow cytometry analysis (reference value: 0.83%); assay type: functional
MGC-803 [27] = experiment: Induction of apoptosis in human MGC-803 cells assessed as upregulation of cleaved caspase-3 expression at 1 to 4 uM incubated for 24 hrs by Western blot analysis; assay type: functional, cell-based; settings: dose 1-4 µM
MGC-803 [28] = experiment: Downregulation of FABP3 mRNA level in human MGC-803 cells at 4 uM incubated for 24 hrs by RT-qPCR analysis; assay type: functional, cell-based
MGC-803 [29] = experiment: Induction of apoptosis in human MGC-803 cells assessed as downregulation of […] expression at 1 to 4 uM incubated for 24 hrs by Western blot analysis; assay type: functional, cell-based; settings: dose 1-4 µM
MGC-803 [30] = experiment: Induction of apoptosis in human MGC-803 cells assessed as late apoptotic cells at 1 uM incubated for 48 hrs by Annexin V-FITC/PI staining based flow cytometry analysis (reference value: 0.98%); assay type: functional
AGS = experiment: Antiproliferative activity against human AGS cells assessed as inhibition of cell growth incubated for 48 hrs by MTT assay; assay type: functional, cell-based
MGC-803 [31] = experiment: Inhibition of cell migration in human MGC-803 cells incubated for 24 hrs by microscopic analysis; assay type: functional, cell-based; settings: dose <= 1.0 µM
MGC-803 [32] = experiment: Antiproliferative activity against human MGC-803 cells assessed as reduction in clone areas incubated for 48 hrs […]; assay type: functional, cell-based; settings: dose <= 2.0 µM

pIC50 (MGC-803 [1]): 5.45 | pIC50 (MGC-803 [10]): 5.45 | pIC50 (MGC-803 [17]): 5.54 | pIC50 (MGC-803 [21]): 5.64 | pIC50 (BGC-823): 4.42 | pIC50 (AGS): 5.28
SMILES: C=C1CC[C@@H]2[C@](C)(CO)[C@H](O)CC[C@@]2(C)[C@@H]1/C=C/C1=CC(=C/c2ccc(C)cc2)/NC1=O
inhibition in vivo at 25 mg/kg (MGC-803 [2]): 20% | Activity (MGC-803 [3]): 0.44% | Activity (MGC-803 [4]): 12.4% | Activity (MGC-803 [5]): 47.5% | Activity (MGC-803 [6]): Dose-dependent-effect | Activity (MGC-803 [7]): Active | Activity (MGC-803 [8]): Active | Activity (MGC-803 [9]): 14.5% | Activity (MGC-803 [11]): Dose-dependent-effect | pIC50 (HGC-27): 5.19 | Activity (MGC-803 [12]): Active | inhibition in vivo at 50 mg/kg (MGC-803 [13]): 50% | Activity (MGC-803 [14]): Dose-dependent-effect | Activity (PC-3): inactive | Activity (MGC-803 [15]): 25.4% | viability at 2 µM (MGC-803 [16]): 40.2% | Activity (ECa-109 cell line): inactive | Activity (MGC-803 [18]): Active | Ratio IC50 [19]: ~8 | Activity (MGC-803 [20]): Active | Activity (MGC-803 [21]; time 24-72 hrs): Dose-dependent-effect | Activity (MGC-803 [22]): Dose-dependent-effect | Activity (MGC-803 [23]): 4.54% | Activity (A549): inactive | Activity (MGC-803 [24]): Active | inhibition (MGC-803 [25]): Active | Activity (MGC-803 [26]): 12.9% | Activity (MGC-803 [27]): Active | Activity (MGC-803 [28]): Active | Activity (MGC-803 [29]): Active | Activity (MGC-803 [30]): 15.1% | inhibition (MGC-803 [31]): Dose-dependent-effect | Activity (MGC-803 [32]): Dose-dependent-effect
